Consider one substance from patent publication US20090029406A1, “Npy Y4 Agonist as Therapeutic Agent for Disease Accompanied by Intestinal Tract Dysfunction” (Banyu Pharmaceutical Co., Ltd., priority 2006, published 2009).

One assay deals with male mice (C57BL/6J). The experiment in a line: Amount of excreted feces after subcutaneous administration to mice (Example 1). It counts as in vivo, mouse. An excerpt:
Also, it is known that the Y4 receptor is present in the lower gastrointestinal tract. Accordingly, by administering mouse PP (mPP) to a mouse, an effect on the movement of the lower gastrointestinal tract of the mouse was studied. That is, how the amount of excreted feces was changed by the administration of mPP was observed, and a change in the gastrointestinal movement was discussed by assuming that an increase in the amount of excreted feces reflects an increase in the lower gastrointestinal tract movement.
To male mice (C57BL/6J, 15 weeks of age), mPP (0.001, 0.01, 0.1 or 1 mg/kg) was subcutaneously administered, and to a vehicle group, only saline (5 mL/kg) was subcutaneously administered. The mice were subjected to fasting at the same time of the subcutaneous administration of saline or mPP. Feces were collected at 1, 2 and 4 hours after the administration, and the weight of the feces was measured. A significant difference between groups was analyzed using an analysis of variance and the Dunnett's test.

Assay [1] concerns distal colon isolated from a C57BL/6 mouse. The experiment in a line: Tension of isolated distal colon, organ bath (Example 2). The protocol: (§1) The ileum, proximal colon and distal colon were isolated from a C57BL/6 mouse (8 to 20 weeks of age). The specimens were cut into a length of 1 cm, respectively, and were suspended in the longitudinal muscle direction under a resting tension of 0.3 g in 5 mL of Krebs-Henseleit solution (the composition is shown in Table 1) oxygenated with 95% O2 and 5% CO2, while setting the temperature of a bath to 37° C. The tension was measured using an isometric transducer (TB-651, manufactured by Nihon Kohden), and outputs were recorded at 20 points per second using Power Lab (manufactured by ADInstrument).
(§2) After equilibration for 1 hour, mPP at 0.01 μM, 0.1 μM and 1 μM was applied and measurement was carried out for 20 minutes. The above-mentioned mPP was prepared such that it became 0.01 mM, 0.1 mM and 1 mM solutions in DMSO, and 5 μL of each of the resulting solutions was applied to 5 mL of an organ bath. The action of mPP was represented by a ratio of an average tension for 20 minutes after the application to an average tension for 20 minutes before the application. The statistical calculation was performed using the paired t-test.

Assay [2] deals with ileum isolated from a C57BL/6 mouse. The experiment in a line: Tension of isolated ileum, organ bath (Example 2). The following applies: 0.01, 0.1 and 1 μM. The method, then:
as §1, §2

For assay [3], the system named is proximal colon isolated from a wild-type mouse. Put plainly: Tension of proximal colon isolated from wild-type mouse (Example 5). The following applies: 1 μM. The protocol: (§3) The ileum, proximal colon and distal colon were isolated from an NPY Y4 receptor knockout mouse and a wild-type mouse (32 to 37 weeks of age). The specimens were cut into a length of 1 cm, respectively, and were suspended in the longitudinal muscle direction under a resting tension of 0.3 g in 5 mL of Krebs-Henseleit solution oxygenated with 95% O2 and 5% CO2, while setting the temperature of a bath to 37° C. The tension was measured using an isometric transducer (TB-65 1, manufactured by Nihon Kohden), and outputs were recorded at 20 points per second using Power Lab (ADInstrument).
(§4) After equilibration for 1 hour, 1 μM mPP was applied and measurement was carried out for 20 minutes. The above-mentioned mPP was prepared such that it became a 1 mM solution in DMSO, and 5 μL of the resulting solution was applied to 5 mL of an organ bath. The action of mPP was represented by a ratio of an average tension for 20 minutes after the application to an average tension for 20 minutes before the application. The statistical calculation was performed using the Student's t-test or paired t-test.

The test system of assay [4] is proximal colon isolated from a C57BL/6 mouse. The experiment in a line: Tension of isolated proximal colon, organ bath (Example 2). The method, then:
as §1, §2

Assay [5] has as its system ileum isolated from an NPY Y4 receptor knockout mouse and a wild-type mouse. The experiment in a line: Tension of ileum isolated from NPY Y4 receptor knockout and wild-type mouse (Example 5). The conditions noted are these: 1 μM. The method, then:
as §3, §4

The subject of assay [6] is NPY Y4 receptor knockout mice. Put plainly: Amount of excreted feces in NPY Y4 receptor knockout mice (Example 4). In kind it is in vivo, mouse. The following applies: 1 mg/kg subcutaneous, vehicle group 358±31 mg/2 h. The method, then: (§5) The following test was carried out using wild-type mice and NPY Y4 receptor knockout mice (male, 23 to 39 weeks of age, n=10 to 16). mPP (1 mg/kg) or saline (5 mL/kg) was subcutaneously administered to the mice. The mice were subjected to fasting at the same time of the subcutaneous administration. Feces were collected at 1 and 2 hours after the administration, and the weight of the feces was measured. The cumulative amount of feces for 2 hours was used for an analysis, and a significant difference between groups was analyzed using the Student's t-test.

Assay [7] deals with mouse models of constipation induced by clonidine. Put plainly: Mouse models of constipation induced by clonidine, amount of excreted feces (Example 3). It counts as in vivo. The conditions noted are these: clonidine 0.1 mg/kg i.p., mPP 1 mg/kg s.c. one hour later; 4 hours after clonidine (3 hours after mPP). The protocol:
To male mice (C57BL/6J, 18 weeks of age), clonidine (0.1 mg/kg) was intraperitoneally administered, and to a vehicle group, only saline was intraperitoneally administered. One hour after the administration of clonidine, saline (a control group) or mPP (1 mg/kg) was subcutaneously administered, and also to a vehicle group, only saline was subcutaneously administered. The mice were subjected to fasting at the same time of the intraperitoneal administration of saline or clonidine. Feces were collected at 1, 2, 3 and 4 hours after the administration, and the weight of the feces was measured. A significant difference between groups was analyzed using an analysis of variance and the Tukey's test.

For a further assay, the system named is wild-type mice. Put plainly: Amount of excreted feces in wild-type mice (Example 4). In kind it is in vivo, mouse. The conditions noted are these: 1 mg/kg subcutaneous. The protocol:
as §5

Assay [8] has as its system distal colon isolated from a wild-type mouse. The experiment in a line: Tension of distal colon isolated from wild-type mouse (Example 5). The conditions noted are these: 1 μM. The method, then:
as §3, §4

The mark [9] stands for this setting: 0.01, 0.1 and 1 μM, ratio of average tension 20 min after to 20 min before application.

Regarding “mouse PP (APLEPMYPGDYATPEQMAQYETQLRRYINTLTRPRY; mouse) [mPP]”, the “cumulative amount of excreted feces for 4 hours after administration” value in the assay on male mice (C57BL/6J) (0.1 mg/kg subcutaneous, P<0.05 vs vehicle group (211±18 mg/4 h)) is 325±22 mg/4 h; in the assay with male mice (C57BL/6J) (1 mg/kg subcutaneous, P<0.01 vs vehicle group (211±18 mg/4 h)), 408±36 mg/4 h. Also, in the assay on male mice (C57BL/6J) (0.001, 0.01, 0.1 or 1 mg/kg subcutaneous, feces collected at 1, 2 and 4 hours), the “action of increasing defecation (amount of excreted feces)” value was “exhibited an action of increasing defecation in a dose dependent manner”. Also, the “dose at which cumulative amount of excreted feces for 4 hours was significant compared with the vehicle group” value in the assay on male mice (C57BL/6J) (subcutaneous) is at least 0.1 mg/kg. In addition, the amplitude of automatism result in assay [1] and in assay [4] was “an increase in the amplitude of automatism was observed” in each case. Moreover, the “increase in the tension, dose dependence” value is reported as “increased the tension in a dose dependent manner” in assay [1] (0.01, 0.1 and 1 μM); “increased the tension in a dose dependent manner” in [4] (0.01, 0.1 and 1 μM). Also, the “maximum action on tension, of that before the application” value is listed as 152% in assay [1] (setting [9]) and 131% in assay [4] (setting [9]). The “increase in the tension” value in [2] is “a significant increase in the tension was not observed”; in assay [3], “an increase in the tension observed in the wild-type mouse”; in assay [8], “an increase in the tension observed in the wild-type mouse”. Besides, the “difference in the change in the tension between wild-type and NPY Y4 receptor knockout mouse” value in assay [5] is recorded as “a difference was not observed between them”. The “cumulative amount of feces for 2 hours” value in assay [6] was determined as 403±43 mg/2 h; in the assay with wild-type mice (P<0.01 vs vehicle group (322±41 mg/2 h)) it was 668±64 mg/2 h. In [7], the “decrease in the amount of excreted feces compared with the vehicle group” value is given as “a significant decrease in the amount of excreted feces was not observed”. The “action of increasing defecation” value in the assay on wild-type mice is given as “exhibited an action of increasing defecation”.
